Experimental data reported in ChEMBL document CHEMBL4428032, “Furofuran Lignan Glucosides with Estrogen-Inhibitory Properties from the Bangladeshi Medicinal Plant Terminalia citrina” (2016).
Activity calls are given as the source filed them. No cut-off for these calls is given here.

Tests used:
T47D [1] = test: Estrogen-like activity in human T47D cells assessed as increase in cell proliferation after 96 hrs by alamar blue assay; type: functional, cell-based
T47D [2] = test: Antiestrogenic activity in human T47D cells assessed as compound concentration required to decrease 100 pM E2-induced cell proliferation to equivalent levels induced by 50 pM E2 after 96 hrs by alamar blue assay; type: functional
MCF7 [3] = test: Antiestrogenic activity in human MCF7 cells assessed as compound concentration required to decrease 100 pM E2-induced cell proliferation to equivalent levels induced by 50 pM E2 after 96 hrs by alamar blue assay; type: functional
Leishmania major = test: Leishmanicidal activity against Leishmania major promastigotes at 100 ug/ml after 48 hrs by MTT assay; type: functional, organism-based
T47D [4] = test: Antiestrogenic activity in human T47D cells assessed as inhibition of E2-induced cell proliferation up to 10 uM after 96 hrs by alamar blue assay relative to control; type: functional
T47D [5] = test: Antiestrogenic activity in human T47D cells assessed as compound concentration required to decrease 100 pM E2-induced cell proliferation to equivalent levels induced by 10 pM E2 after 96 hrs by alamar blue assay; type: functional
MCF7 [6] = test: Estrogen-like activity in human MCF7 cells assessed as increase in cell proliferation after 96 hrs by alamar blue assay; type: functional, cell-based
MCF7 [7] = test: Antiestrogenic activity in human MCF7 cells assessed as inhibition of E2-induced cell proliferation up to 10 uM after 96 hrs by alamar blue assay relative to control; type: functional
MCF7 [8] = test: Antiestrogenic activity in human MCF7 cells assessed as compound concentration required to decrease 100 pM E2-induced cell proliferation to equivalent levels induced by 10 pM E2 after 96 hrs by alamar blue assay; type: functional
MCF7 [9] = test: Antiestrogenic activity in human MCF7 cells assessed as compound concentration required to decrease 100 pM E2-induced cell proliferation to equivalent levels induced by 1 pM E2 after 96 hrs by alamar blue assay; type: functional
T47D [10] = test: Antiestrogenic activity in human T47D cells assessed as compound concentration required to decrease 100 pM E2-induced cell proliferation to equivalent levels induced by 1 pM E2 after 96 hrs by alamar blue assay; type: functional

Row | SMILES | Activity (T47D [1]) | Activity (T47D [2]) [µM] | Activity (MCF7 [3]) [µM] | Activity (Leishmania major) | inhibition (INH) (T47D [4]) [%] | Activity (T47D [5]) [µM] | Activity (MCF7 [6]) | inhibition (INH) (MCF7 [7]) [%] | Activity (MCF7 [8]) [µM] | Activity (MCF7 [9]) [µM] | Activity (T47D [10]) [µM]
1 | COc1cc([C@H]2OC[C@H]3[C@@H]2CO[C@@H]3c2cc(OC)c3c(c2)OCO3)cc(O[C@@H]2O[C@H](CO)[C@@H](O)[C@H](O)[C@H]2O)c1OC | inactive | <0.01 | <0.01 | inactive | >90 | <0.01 | inactive | – | – | – | –
2 | COc1c(O)cc([C@H]2OC[C@H]3[C@@H]2CO[C@@H]3c2ccc3c(c2)OCO3)c(O[C@@H]2O[C@H](CO)[C@@H](O)[C@H](O)[C@H]2O)c1OC | inactive | <0.01 | <0.01 | inactive | – | – | inactive | – | – | – | –
3 | COc1c(O)cc([C@@H]2OC[C@@H]3[C@H]2CO[C@H]3c2cc(O[C@@H]3O[C@H](CO)[C@@H](O)[C@H](O)[C@H]3O)c(OC)c(OC)c2OC)c(OC)c1OC | inactive | <0.01 | <0.01 | inactive | – | – | inactive | >90 | <0.1 | – | –
4 | COc1c(O)cc([C@H]2OC[C@H]3[C@@H]2CO[C@@H]3c2cc3c(c(OC)c2OC)OCO3)c(O[C@@H]2O[C@H](CO)[C@@H](O)[C@H](O)[C@H]2O)c1OC | inactive | <0.01 | <0.01 | inactive | – | – | inactive | >90 | <0.01 | – | –
5 | COc1cc([C@H]2OC[C@H]3[C@@H]2CO[C@@H]3c2cc(OC)c(OC)c(OC)c2O[C@@H]2O[C@H](CO)[C@@H](O)[C@H](O)[C@H]2O)c(O)c(OC)c1OC | inactive | <0.01 | <0.01 | inactive | – | – | inactive | – | – | – | –
6 | COc1cc([C@H]2OC[C@H]3[C@@H]2CO[C@@H]3c2ccc3c(c2)OCO3)c(O[C@@H]2O[C@H](CO)[C@@H](O)[C@H](O)[C@H]2O)c(OC)c1OC | inactive | <0.01 | <0.01 | inactive | >90 | <0.01 | inactive | – | <0.01 | 3.5 | –
7 | COc1cc([C@H]2OC[C@H]3[C@@H]2CO[C@@H]3c2cc(OC)c(OC)c(OC)c2O[C@@H]2O[C@H](CO)[C@@H](O)[C@H](O)[C@H]2O)cc2c1OCO2 | inactive | – | <0.01 | inactive | – | – | inactive | – | – | – | –
8 | COc1cc([C@H]2OC[C@H]3[C@@H]2CO[C@@H]3c2cc(O)c(OC)c(OC)c2O[C@@H]2O[C@H](CO)[C@@H](O)[C@H](O)[C@H]2O)cc2c1OCO2 | inactive | 10 | <0.01 | inactive | – | – | inactive | >90 | <0.1 | – | –
9 | COc1cc([C@@H]2OC[C@@H]3[C@H]2CO[C@H]3c2cc(O[C@@H]3O[C@H](CO)[C@@H](O)[C@H](O)[C@H]3O)c(OC)c(OC)c2OC)c(OC)c(OC)c1OC | inactive | <0.01 | <0.01 | inactive | >50 | 1 | inactive | – | – | – | –
10 | COc1cc([C@H]2OC[C@H]3[C@@H]2CO[C@@H]3c2cc(OC)c(OC)c(OC)c2O[C@@H]2O[C@H](CO)[C@@H](O)[C@H](O)[C@H]2O)cc(OC)c1OC | inactive | <0.01 | <0.01 | inactive | >90 | <0.01 | inactive | >50 | 9.8 | – | –
11 | COc1cc([C@@H]2OC[C@@H]3[C@H]2CO[C@H]3c2cc(O)c(OC)c(OC)c2O[C@@H]2O[C@H](CO)[C@@H](O)[C@H](O)[C@H]2O)c(OC)c(OC)c1OC | inactive | <0.01 | <0.01 | inactive | – | – | inactive | – | – | – | –
12 | CC/C(=C(\c1ccccc1)c1ccc(OCCN(C)C)cc1)c1ccccc1 [TAMOXIFEN] | – | 0.1 | 0.1 | – | – | 0.9 | – | – | 0.3 | 4.5 | 7
13 | COc1cc([C@@H]2OC[C@H]3[C@@H]2CO[C@@H]3c2cc(OC)c(OC)c(OC)c2O[C@@H]2O[C@H](CO)[C@@H](O)[C@H](O)[C@H]2O)c(O)c(OC)c1OC | inactive | <0.1 | <0.01 | inactive | – | – | inactive | >90 | <0.01 | – | –
14 | COc1cc([C@H]2OC[C@H]3[C@@H]2CO[C@H]3c2cc(OC)c(OC)c(OC)c2O[C@@H]2O[C@H](CO)[C@@H](O)[C@H](O)[C@H]2O)cc2c1OCO2 | inactive | 5.6 | <0.01 | inactive | – | – | inactive | >50 | 0.6 | – | –
